ChEMBL document CHEMBL1697781, “Assessment of the health effects of chemicals in humans: II. Construction of an adverse effects database for QSAR modeling” (Curr Drug Discov Technol, 2004)

How the values were obtained:
Settings in all cases: human; call rule not given here
Hepatotoxicity [1] = test: FDA HLAED, liver enzyme composite activity
Hepatotoxicity [2] = test: FDA HLAED, alkaline phosphatase increase
Hepatotoxicity [3] = test: FDA HLAED, serum glutamic oxaloacetic transaminase (SGOT) increase
Hepatotoxicity [4] = test: FDA HLAED, serum glutamic pyruvic transaminase (SGPT) increase
Hepatotoxicity [5] = test: FDA HLAED, lactate dehydrogenase (LDH) increase
Hepatotoxicity [6] = test: FDA HLAED, gamma-glutamyl transferase (GGT) increase
Throughout, for GGT Increase - Index Value: reference of the scale not given here.
Throughout, for LDH Increase - Index Value: reference of the scale not given here.

SMILES | Composite Activity - Active (Hepatotoxicity [1]) | Composite Activity - Marginal (Hepatotoxicity [1]) | Composite Activity - Score (Hepatotoxicity [1]) | Alkaline Phosphatase Increase - Activity Score (Hepatotoxicity [2]) | Alkaline Phosphatase Increase - Index Value (Hepatotoxicity [2]) | Alkaline Phosphatase Increase - Number of Reports (Hepatotoxicity [2]) | SGOT Increase - Activity Score (Hepatotoxicity [3]) | SGOT Increase - Index Value (Hepatotoxicity [3]) | SGOT Increase - Number of Reports (Hepatotoxicity [3]) | SGPT Increase - Activity Score (Hepatotoxicity [4]) | SGPT Increase - Index Value (Hepatotoxicity [4]) | SGPT Increase - Number of Reports (Hepatotoxicity [4]) | LDH Increase - Activity Score (Hepatotoxicity [5]) | LDH Increase - Index Value (Hepatotoxicity [5]) | LDH Increase - Number of Reports (Hepatotoxicity [5]) | GGT Increase - Activity Score (Hepatotoxicity [6]) | GGT Increase - Index Value (Hepatotoxicity [6]) | GGT Increase - Number of Reports (Hepatotoxicity [6]) | also measured
NCCC(O)(P(=O)(O)O)P(=O)(O)O [PAMIDRONIC ACID] | 2 | 0 | Active | Active | 16.6 | >= 4 | Inactive | 4.1 | < 4 | Inactive | 4.1 | < 4 | Inactive | 4.1 | < 4 | Active | 12.4 | < 4 | 
COc1ccc(-c2ccc3cc(C(=O)O)ccc3c2)cc1C12CC3CC(CC(C3)C1)C2 | 0 | 0 | Inactive | Inactive | 0 | < 4 | Inactive | 0 | < 4 | Inactive | 0 | < 4 | Inactive | 0 | < 4 | Inactive | 0 | < 4 | 
Fc1ccc([C@@H]2CCNC[C@H]2COc2ccc3c(c2)OCO3)cc1 [PAROXETINE] | 0 | 0 | Inactive | Inactive | 0.7 | >= 4 | Inactive | 1.2 | >= 4 | Inactive | 1 | >= 4 | Inactive | 0.4 | >= 4 | Inactive | 0.5 | >= 4 | 
CC(=O)[C@]1(O)Cc2c(O)c3c(c(O)c2[C@@H](O[C@H]2C[C@H](N)[C@H](O)[C@H](C)O2)C1)C(=O)c1ccccc1C3=O [IDARUBICIN] | 0 | 0 | Inactive | Inactive | 0 | < 4 | Inactive | 0 | < 4 | Inactive | 0 | < 4 | Inactive | 0 | < 4 | Inactive | 0 | < 4 | 
CC(C)(C)NCC(O)c1ccc(O)c(CO)n1 (configuration not stated) [PIRBUTEROL] | 0 | 0 | Inactive | Inactive | 0 | < 4 | Inactive | 0.3 | < 4 | Inactive | 0 | < 4 | Inactive | 0 | < 4 | Inactive | 0 | < 4 | 
O=C(O)C1=C(CSc2nnnn2CS(=O)(=O)O)CS[C@@H]2[C@H](NC(=O)[C@H](O)c3ccccc3)C(=O)N12 [CEFONICID] | 0 | 0 | Inactive | Inactive | 12.7 | < 4 | Inactive | 0 | < 4 | Inactive | 0 | < 4 | Inactive | 0 | < 4 | Inactive | 0 | < 4 | 
CC(O)(CS(=O)(=O)c1ccc(F)cc1)C(=O)Nc1ccc(C#N)c(C(F)(F)F)c1 (configuration not stated) [BICALUTAMIDE] | 3 | 0 | Active | Active | 8.5 | >= 4 | Active | 13.6 | >= 4 | Active | 11.9 | >= 4 | Inactive | 5.1 | < 4 | Inactive | 1.7 | < 4 | 
CC(C)NCC(O)COc1ccc(CC(N)=O)cc1 (configuration not stated) [ATENOLOL] |  |  |  | Inactive | 0.1 | < 4 | Inactive | 0.5 | >= 4 | Inactive | 0.3 | >= 4 | Inactive | 0.1 | < 4 | Inactive | 0 | < 4 | Composite Activity - Active (Hepatotoxicity [1]; Liver): 0; Composite Activity - Marginal (Hepatotoxicity [1]; Liver): 0; Composite Activity - Score (Hepatotoxicity [1]; Liver): Inactive
C[C@@H]1O[C@@H]1P(=O)(O)O [FOSFOMYCIN] | 0 | 0 | Inactive | Inactive | 0 | < 4 | Inactive | 0 | < 4 | Inactive | 0 | < 4 | Inactive | 0 | < 4 | Inactive | 0 | < 4 | 
